Experimental data published in ChEMBL document CHEMBL4385656, “Ciprofloxacin-1,2,3-triazole-isatin hybrids tethered via amide: Design, synthesis, and in vitro anti-mycobacterial activity evaluation” (Bioorg Med Chem Lett, 2019).
In brackets after ≈: the same amount, converted by molar mass.

Columns and labels:
[1] = tested on: Mycobacterium tuberculosis; assay: Anti-mycobacterial activity against Mycobacterium tuberculosis H37Rv; type: functional
[2] = Cytotoxicity in African green monkey Vero cells; type: cell-based; conditions: chlorocebus sabaeus
[3] = Selectivity index, ratio of CC50 for cytotoxicity in African green monkey Vero cells to MIC for anti-mycobacterial activity against Mycobacterium tuberculosis H37Rv; type: toxicity, cell-based; conditions: read-out: Selectivity Index
[4] = tested on: Mycobacterium tuberculosis; assay: Potency index, ratio of MIC for ciprofloxacin to MIC for test compound for anti-mycobacterial activity against Mycobacterium tuberculosis H37Rv; type: functional

Row | Compound | MIC [1] [µg/mL] | CC50 [2] [µg/mL] | selectivity ratio [3] | Ratio [4]
1 | O=C1C(=O)N(Cc2cn(CC(=O)N3CCN(c4cc5c(cc4F)c(=O)c(C(=O)O)cn5C4CC4)CC3)nn2)c2ccccc21 | 0.5 (≈ 0.834 µM) | 16 (≈ 26.7 µM) | 32 | 2
2 | CO/N=C1/C(=O)N(Cc2cn(CC(=O)N3CCN(c4cc5c(cc4F)c(=O)c(C(=O)O)cn5C4CC4)CC3)nn2)c2c(F)cccc21 | 32 (≈ 49.5 µM) | 32 (≈ 49.5 µM) | 1 | –
3 | CCO/N=C1/C(=O)N(Cc2cn(CC(=O)N3CCN(c4cc5c(cc4F)c(=O)c(C(=O)O)cn5C4CC4)CC3)nn2)c2ccc(C)cc21 | 32 (≈ 48.7 µM) | 32 (≈ 48.7 µM) | 1 | –
4 | O=C1C(=O)N(Cc2cn(CC(=O)N3CCN(c4cc5c(cc4F)c(=O)c(C(=O)O)cn5C4CC4)CC3)nn2)c2c(F)cccc21 | 4 (≈ 6.48 µM) | 8 (≈ 13 µM) | 2 | –
5 | CCO/N=C1/C(=O)N(Cc2cn(CC(=O)N3CCN(c4cc5c(cc4F)c(=O)c(C(=O)O)cn5C4CC4)CC3)nn2)c2ccc(F)cc21 | 16 (≈ 24.2 µM) | 8 (≈ 12.1 µM) | 0.5 | –
6 | CCO/N=C1/C(=O)N(Cc2cn(CC(=O)N3CCN(c4cc5c(cc4F)c(=O)c(C(=O)O)cn5C4CC4)CC3)nn2)c2ccccc21 | 32 (≈ 49.8 µM) | 64 (≈ 99.6 µM) | 2 | –
7 | CO/N=C1/C(=O)N(Cc2cn(CC(=O)N3CCN(c4cc5c(cc4F)c(=O)c(C(=O)O)cn5C4CC4)CC3)nn2)c2ccc(F)cc21 | 8 (≈ 12.4 µM) | 64 (≈ 99 µM) | 8 | –
8 | CO/N=C1/C(=O)N(Cc2cn(CC(=O)N3CCN(c4cc5c(cc4F)c(=O)c(C(=O)O)cn5C4CC4)CC3)nn2)c2ccccc21 | 8 (≈ 12.7 µM) | 128 (≈ 204 µM) | 16 | –
9 | O=C1C(=O)N(Cc2cn(CC(=O)N3CCN(c4cc5c(cc4F)c(=O)c(C(=O)O)cn5C4CC4)CC3)nn2)c2ccc(F)cc21 | 1 (≈ 1.62 µM) | 32 (≈ 51.8 µM) | 32 | –
10 | CO/N=C1/C(=O)N(Cc2cn(CC(=O)N3CCN(c4cc5c(cc4F)c(=O)c(C(=O)O)cn5C4CC4)CC3)nn2)c2ccc(C)cc21 | 32 (≈ 49.8 µM) | 8 (≈ 12.4 µM) | 0.25 | –
11 | Cc1ccc2c(c1)C(=O)C(=O)N2Cc1cn(CC(=O)N2CCN(c3cc4c(cc3F)c(=O)c(C(=O)O)cn4C3CC3)CC2)nn1 | 1 (≈ 1.63 µM) | 16 (≈ 26.1 µM) | 16 | –
12 | CCO/N=C1/C(=O)N(Cc2cn(CC(=O)N3CCN(c4cc5c(cc4F)c(=O)c(C(=O)O)cn5C4CC4)CC3)nn2)c2c(F)cccc21 | 32 (≈ 48.4 µM) | 16 (≈ 24.2 µM) | 0.5 | –
13 | O=C(O)c1cn(C2CC2)c2cc(N3CCNCC3)c(F)cc2c1=O [CIPROFLOXACIN] | 1 (≈ 3.02 µM) | – | 128 | –
14 | NNC(=O)c1ccncc1 [ISONIAZID] | 0.12 (≈ 0.875 µM) | 64 (≈ 467 µM) | 512 | –
15 | CO[C@H]1/C=C/O[C@@]2(C)Oc3c(C)c(O)c4c(O)c(c(/C=N/N5CCN(C)CC5)c(O)c4c3C2=O)NC(=O)/C(C)=C\C=C\[C@H](C)[C@H](O)[C@@H](C)[C@@H](O)[C@@H](C)[C@H](OC(C)=O)[C@@H]1C [RIFAMPIN] | 0.25 (≈ 0.304 µM) | 128 (≈ 156 µM) | 512 | –
